“Also recorded” adds a separate entry of the source. Where two headings read alike, the source gives them in different places.
Key:
HBV [1] = test: microbe, parasite or virus in culture; type: cell-based, hepatitis B virus genotype D; settings: for %Imax, p1 infection: percent maximum inhibition; for effect on p1 cell infection (phenotype): reference inhibitors, assay validation
HBV [2] = test: microbe, parasite or virus in culture; type: cell-based, hepatitis B virus genotype D; settings: for %Imax, p2 infection: percent maximum inhibition; for Emax: read-out: %Imax; for p2 cells still infected at high inhibitor concentrations: high concentrations of late-phase reference inhibitors
HBV [3] = settings: read-out: Published EC50, cited from earlier work
HepG2-NTCPsec+ cells = test: Cell viability by automated nuclei counting; type: cell-based, human; settings: hit confirmation DRC, 10-point serial dilutions starting at 25 μM
NTCP [4] = target: T1, NTCP (Homo sapiens, UniProt Q14973); test: Binding assay of Alexa633-labelled HBV preS1 peptide; settings: for effect on preS1 peptide binding to NTCP: cytochalasin D tested up to 50 μM
T1 sequence (Q14973 1-349): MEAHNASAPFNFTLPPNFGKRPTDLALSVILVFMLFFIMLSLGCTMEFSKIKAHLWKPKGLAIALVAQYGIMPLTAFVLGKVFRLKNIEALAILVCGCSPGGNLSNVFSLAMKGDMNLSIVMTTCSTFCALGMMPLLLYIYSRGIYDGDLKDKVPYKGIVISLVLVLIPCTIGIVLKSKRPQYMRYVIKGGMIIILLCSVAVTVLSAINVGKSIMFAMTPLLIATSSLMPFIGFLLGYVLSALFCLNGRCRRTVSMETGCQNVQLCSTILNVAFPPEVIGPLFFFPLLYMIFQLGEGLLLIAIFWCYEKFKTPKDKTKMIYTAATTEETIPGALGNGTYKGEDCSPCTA

SARS-CoV-2 [5] = type: cell-based
SARS-CoV-2 [6] = settings: virus-free, live-cell assay; cited from earlier work
HBV [7] = test: Time-of-addition experiments, HBV infection; type: cell-based, hepatitis B virus; settings: pretreatment/cotreatment vs post-inoculation 1-7 dpi
[8] = system: HBV preS1 peptide internalisation; test: Live-cell imaging of Alexa633-labelled preS1 peptide internalisation; type: cell-based; settings: after transfer to 37°C, confocal live-cell imaging
HIV-1 = type: cell-based, HIV-1 strain LAI; settings: Fig. S3
HBV [9] = test: Stably HBV replicating HepAD38 cells, supernatant HBV DNA by quantitative PCR; type: cell-based, hepatitis B virus; settings: supernatant qPCR at 7 days post-treatment
HCV = type: cell-based
NTCP [10] = target: T1, NTCP; settings: transiently NTCP-transfected U2OS cells; cited from earlier work
HBV and HDV = settings: cited from earlier work
[11] = read-out: EC50, p1 infection, p1 cells, DRC of reference inhibitors
[12] = Hepatitis B virus, read-out: EC50 (μM), early HBV life cycle inhibitors

Compound: COC(=O)C1=C(C)NC(c2ncc(F)cc2F)=N[C@H]1c1ccc(F)cc1Cl [Bay41-4109]
- %Imax, p1 infection (HBV [1]; p1 cells): 99%
- EC50 (HBV [1]; [11]): 1.3 µM
- %Imax, p2 infection (HBV [2]; p2 cells): 99%

Compound: O=C(CN(c1cc(C(F)(F)F)ccc1Cl)S(=O)(=O)c1ccccc1)NCc1ccncc1 [CCC-0975]
- %Imax, p1 infection (HBV [1]; p1 cells): 60%
- EC50 (HBV [1]; [11]): ~5 µM
- effect on p1 cell infection (phenotype) (HBV [1]): inhibited HBV infection in p1 and p2 cells
- effect on p2 cell infection / infectivity of HBV progeny (HBV [2]; after supernatant transfer): inhibited HBV infection in p1 and p2 cells
- EC50 (HBV [2]; read-out: EC50, p2 infection (after supernatant transfer), p2 cells): ~8 µM
- EC50 (HBV [3]; System HepDE19, ref PMID 22644022): 10 µM

Compound: CC(C)(C)c1cc(C(=O)/C=C/c2ccc(C(=O)O)cc2)cc(C(C)(C)C)c1 [Ch 55]
- CC50 (HepG2-NTCPsec+ cells): > 25 µM
- %Imax (HBV [2]; p2 inhibitor, hit confirmation DRC): 99.9%
- EC50 (HBV [2]; p2 inhibitor, hit confirmation DRC, 10-point serial dilutions starting at 25 μM): 3.21 µM

Compound: C=C1[C@@H](C)[C@H]2[C@H](Cc3ccccc3)NC(=O)[C@]23[C@H](OC(C)=O)/C=C/[C@@](C)(O)C(=O)[C@@H](C)C/C=C/[C@H]3[C@@H]1O [Cytochalasin D, cytochalasin D]
- effect on preS1 peptide binding to NTCP (NTCP [4]): did not prevent the binding
- effect on preS1 peptide binding to NTCP (NTCP [4]; listed as cytochalasin D): did not interfere with receptor–virus binding
- effect on SARS-CoV-2 infection (SARS-CoV-2 [5]; Fig. S3): minor activity in both virus systems; also recorded: inhibits SARS-CoV-2 infection
- effect on SARS-CoV-2 cell entry (SARS-CoV-2 [6]): prevent SARS-CoV-2 cell entry
- anti-HBV activity in time-of-addition experiments (HBV [7]): exhibited anti-HBV activity exclusively under the pretreatment/cotreatment conditions
- effect on internalisation of HBV preS1 peptide [8]: prevented the internalisation of HBV; also recorded: partially reduced; also recorded: partial retention of the peptide at the plasma membrane
- EC50 (HBV [1]; [12]): 0.07 µM
- Imax (%), early HBV life cycle inhibitors (HBV [1]; p1 cells): 86%
- effect on HIV-1 infection (HIV-1): minor activity in both virus systems

Compound: Nc1ncn([C@H]2C[C@H](O)[C@@H](CO)O2)c(=O)n1 [Decitabine]
- Emax (HBV [2]; Hepatitis B virus): 91.9%

Compound: Cc1cccc([C@H](C)c2cnc[nH]2)c1C [Dexmedetomidine, dexmedetomidine]
- effect on SARS-CoV-2 infection (SARS-CoV-2 [5]): no inhibition was observed; also recorded: do not interfere in the production and spread
- Imax (%), late HBV life cycle inhibitors (HBV [2]): 82%
- effect on p2 cell infection / infectivity of HBV progeny (HBV [2]): interfered with the infectivity of HBV progeny; also recorded: mitigated the infectivity of secreted progeny HBV particles; also recorded: strongly suppresses the infectivity of secreted progeny HBV particles
- EC50 (HBV [2]; Hepatitis B virus, read-out: EC50 (μM), late HBV life cycle inhibitors): 6.2 µM
- EC50 (HBV [2]; read-out: EC50 (μM), late HBV life cycle inhibitors): 6.23 µM
- effect on HBV replication / HBV DNA secretion in HepAD38 cells (HBV [9]): without reducing HBV replication or genome secretion; also recorded: did not inhibit HBV DNA replication
- effect on HCV replication and secretion (HCV): no inhibition was observed; also recorded: do not interfere in the production and spread

Compound: C=C1[C@H](CO)[C@@H](O)C[C@@H]1n1cnc2c(=O)[nH]c(N)nc21 [Entecavir]
- Emax (HBV [2]; Hepatitis B virus): 96.7%

Compound: O=c1[nH]c(=O)n([C@H]2C[C@H](O)[C@@H](CO)O2)cc1F [Floxuridine]
- Emax (HBV [2]; Hepatitis B virus): 97.6%

Compound: O=C(O)P(=O)(O)O [Foscarnet]
- Emax (HBV [2]; Hepatitis B virus): 94.2%

Compound: CCOC(=O)C1=C(CN2CCOCC2)NC(c2nccs2)=NC1c1ccc(F)cc1Br (stereo not drawn) [GLS4]
- HBcAg phenotype under CpAM treatment (HBV [1]; class II core protein allosteric modifiers, Fig. S4): aggregated HBcAg phenotype

Compound: CC(C)OC(=O)[C@H](C)N[P@](=O)(CO[C@H](C)Cn1cnc2c(N)ncnc21)Oc1ccccc1 [GS-7340]
- EC50 (HBV [2]; Hepatitis B virus): < 0.05 µM
- Emax (HBV [2]; Hepatitis B virus): 99.4%

Compound: O=C1Cc2ccccc2C(=O)N1O [HID, N-hydroxyisoquinolinedione]
- EC50 (HBV [1]; [11]): > 50 µM
- effect on p1 cell infection (phenotype) (HBV [1]): did not affect the infection status of p1 cells
- effect on p2 cell infection / infectivity of HBV progeny (HBV [2]; after supernatant transfer): reduced number of infected p2 cells
- p2 cells still infected at high inhibitor concentrations (HBV [2]): 2–5%
- %Imax, p2 infection (HBV [2]; p2 cells): 99%
- EC50 (HBV [3]; System HepDES19, ref PMID 24858512): 4.2 µM

Compound: CN1c2cc3c(cc2N=C(c2ccc(C(=O)O)cc2)c2ccccc21)C(C)(C)CCC3(C)C [LE 135]
- CC50 (HepG2-NTCPsec+ cells): > 25 µM
- %Imax (HBV [1]; p1 inhibitor, hit confirmation DRC): 94.5%
- EC50 (HBV [1]; p1 inhibitor, hit confirmation DRC, 10-point serial dilutions starting at 25 μM): 11.7 µM

Compound: Nc1ccn([C@@H]2CS[C@H](CO)O2)c(=O)n1 [LMV, lamivudine]
- EC50 (HBV [1]; Hepatitis B virus, read-out: EC50, p1 infection): > 10 µM
- EC50 (HBV [2]; Hepatitis B virus, read-out: EC50 (μM), late HBV life cycle inhibitors, infectious HBV genotype D, p2 cells): 0.02 µM
- p2 cells still infected at high inhibitor concentrations (HBV [2]): 2–5%
- Imax (%), late HBV life cycle inhibitors (HBV [2]; p2 cells): 98%

Compound: CC[C@H](C)C(=O)O[C@H]1CCC=C2C=C[C@H](C)[C@H](CC[C@@H]3C[C@@H](O)CC(=O)O3)[C@H]21 [Mevastatin]
- Emax (HBV [2]; Hepatitis B virus): 101%

Compound: COC(=O)Nc1nc2ccc(C(=O)c3cccs3)cc2[nH]1 [Nocodazole]
- Emax (HBV [2]; Hepatitis B virus): 91.8%

Compound: CC[C@@H]([C@H](C)O)n1ncn(-c2ccc(N3CCN(c4ccc(OC[C@@H]5CO[C@@](Cn6cncn6)(c6ccc(F)cc6F)C5)cc4)CC3)cc2)c1=O [Posaconazole]
- Emax (HBV [2]; Hepatitis B virus): 96.4%

Compound: C#CCC(Cc1cnc2nc(N)nc(N)c2n1)c1ccc(C(=O)N[C@@H](CCC(=O)O)C(=O)O)cc1 (stereo partly drawn) [Pralatrexate]
- Emax (HBV [2]; Hepatitis B virus): 102%

Compound: O=C(Nc1cccc2c(=O)cc(-c3nnn[nH]3)oc12)c1ccc(OCCCCc2ccccc2)cc1 [Pranlukast, pranlukast]
- effect on NTCP bile acid transporter function (NTCP [10]): inhibits the bile acid transporter function
- EC50 (NTCP [4]): 7.6 µM
- effect on preS1 peptide binding to NTCP (NTCP [4]): inhibited HBV preS1 binding
- effect on preS1 peptide binding to NTCP (NTCP [4]; listed as pranlukast): blocked the binding
- effect on SARS-CoV-2 infection (SARS-CoV-2 [5]; Fig. S3): only inhibited HIV-1; also recorded: but not pranlukast
- anti-HBV activity in time-of-addition experiments (HBV [7]): exhibited anti-HBV activity exclusively under the pretreatment/cotreatment conditions
- EC50 (HBV [1]; [12]): 4.3 µM
- Imax (%), early HBV life cycle inhibitors (HBV [1]; p1 cells): 92%
- effect on HIV-1 infection (HIV-1): only inhibited HIV-1

Compound: Cc1nc2ccc(CN(C)c3ccc(C(=O)N[C@@H](CCC(=O)O)C(=O)O)s3)cc2c(=O)[nH]1 [Raltitrexed]
- Emax (HBV [2]; Hepatitis B virus): 93.7%

Compound: Cc1c(C(=O)NN2CCCCC2)nn(-c2ccc(Cl)cc2Cl)c1-c1ccc(Cl)cc1 [Rimonabant]
- Emax (HBV [2]; Hepatitis B virus): 99.4%

Compound: CCC(C)(C)C(=O)O[C@H]1C[C@@H](C)C=C2C=C[C@H](C)[C@H](CC[C@@H]3C[C@@H](O)CC(=O)O3)[C@H]21 [Simvastatin]
- Emax (HBV [2]; Hepatitis B virus): 99.9%

Compound: CC(C)OC(=O)OCOP(=O)(CO[C@H](C)Cn1cnc2c(N)ncnc21)OCOC(=O)OC(C)C.O=C(O)/C=C/C(=O)O [TDF, tenofovir disoproxil fumarate]
- EC50 (HBV [1]; [11]): > 50 µM
- effect on p1 cell infection (phenotype) (HBV [1]): did not affect the infection status of p1 cells
- effect on p2 cell infection / infectivity of HBV progeny (HBV [2]; after supernatant transfer): reduced number of infected p2 cells
- p2 cells still infected at high inhibitor concentrations (HBV [2]): 2–5%

Compound: CC[C@]1(O)C[C@H]2CN(CCc3c([nH]c4ccccc34)[C@@](C(=O)OC)(c3cc4c(cc3OC)N(C=O)[C@H]3[C@@](O)(C(=O)OC)[C@H](OC(C)=O)[C@]5(CC)C=CCN6CC[C@]43[C@@H]65)C2)C1 [Vincristine]
- Emax (HBV [2]; Hepatitis B virus): 96.9%

Compound: COc1cc(C(=O)NS(=O)(=O)c2ccccc2C)ccc1Cc1cn(C)c2ccc(NC(=O)OC3CCCC3)cc12 [zafirlukast]
- concentration significantly inhibiting HBV and HDV infection (HBV and HDV): 6 µM

Compound: IFNα
- antiviral effect on early HBV life cycle steps (HBV [1]; p1 cells treated over several weeks, Fig. S5A): no or only insignificant antiviral effects
- antiviral effect on late HBV life cycle steps (HBV [2]): no or only insignificant antiviral effects

Source: publication PMC8243515 (JHEP Reports, 2021)
